pIC50: −log10 of the molar value. Activity calls are given as the source filed them. No cut-off for these calls is given here.
How the values were obtained:
A549 = test: Cytotoxicity against human A549 cells assessed as inhibition of cell growth measured after 72 hrs by MTT assay; type: functional, cell-based; details: A549, 72 h
[1] = Cytotoxicity against rat NRK cells assessed as inhibition of cell growth measured after 72 hrs by MTT assay; type: toxicity, cell-based
MCF7 = test: Cytotoxicity against human MCF7 cells assessed as inhibition of cell growth measured after 72 hrs by MTT assay; type: functional, cell-based; details: MCF7, 72 h
SK-MEL-28 = test: Cytotoxicity against human SK-MEL-28 cells assessed as inhibition of cell growth measured after 72 hrs by MTT assay; type: functional, cell-based; details: SK-MEL-28, 72 h
BT-474 = test: Cytotoxicity against human BT-474 cells assessed as inhibition of cell growth measured after 72 hrs by MTT assay; type: functional, cell-based; details: BT-474, 72 h
HCT-116 [2] = test: Cytotoxicity against human HCT-116 cells assessed as inhibition of cell growth measured after 72 hrs by MTT assay; type: functional, cell-based; details: HCT-116, 72 h
HCT-116 [3] = test: Induction of nuclear morphological changes in human HCT-116 cells assessed as horseshoe shaped nuclei formation measured after 48 hrs by DAPI-staining based fluorescence microscopic analysis; type: functional, cell-based
HCT-116 [4] = test: Inhibition of cell invasion in human HCT-116 cells at 3.36 to 13.46 uM measured after 48 hrs by phase contrast microscopic analysis; type: functional, cell-based; details: dose 3.36-13.46 µM
HCT-116 [5] = test: Induction of morphological changes in human HCT-116 cells assessed as formation of apoptotic bodies incubated for 24 hrs by acridine orange/ethidium bromide staining based fluorescence microscopic analysis; type: functional, cell-based
HCT-116 [6] = test: Induction of nuclear morphological changes in human HCT-116 cells assessed as change in nuclear condensation measured after 48 hrs by DAPI-staining based fluorescence microscopic analysis; type: functional, cell-based
HCT-116 [7] = test: Induction of nuclear morphological changes in human HCT-116 cells assessed as change in nuclear shape measured after 48 hrs by DAPI-staining based fluorescence microscopic analysis; type: functional, cell-based
HCT-116 [8] = test: Induction of morphological changes in human HCT-116 cells assessed as cell nucleus shrinkage at 3.36 to 13.46 uM measured after 48 hrs by phase contrast microscope; type: functional, cell-based; details: dose 3.36-13.46 µM
HCT-116 [9] = test: Induction of apoptosis in human HCT-116 cells assessed as reduction in cell viability at 3.36 to 13.46 uM measured after 48 hrs by phase contrast microscope; type: functional, cell-based; details: dose 3.36-13.46 µM
HCT-116 [10] = test: Induction of ROS production in human HCT-116 cells at 3.36 uM incubated for 72 hrs by DCFDA staining based fluorescence microscopic analysis; type: functional, cell-based
HCT-116 [11] = test: Induction of morphological changes in human HCT-116 cells assessed as formation of necrotic bodies incubated for 24 hrs by acridine orange/ethidium bromide staining based fluorescence microscopic analysis; type: functional, cell-based
HCT-116 [12] = test: Induction of morphological changes in human HCT-116 cells assessed as cell detachment at 3.36 to 13.46 uM measured after 48 hrs by phase contrast microscope; type: functional, cell-based; details: dose 3.36-13.46 µM

| Compound | pIC50 (A549) | IC50 at 72 h [1] | pIC50 (MCF7) | pIC50 (SK-MEL-28) | pIC50 (BT-474) | pIC50 (HCT-116 [2]) | Activity (HCT-116 [3]) | inhibition (HCT-116 [4]) | Activity (HCT-116 [5]) | Activity (HCT-116 [6]) | Activity (HCT-116 [7]) | Activity (HCT-116 [8]) | Activity (HCT-116 [9]) | Activity (HCT-116 [10]) | Activity (HCT-116 [11]) | Activity (HCT-116 [12]) |
| --- | --- | --- | --- | --- | --- | --- | --- | --- | --- | --- | --- | --- | --- | --- | --- | --- |
| CC(C)(C)S(=O)(=O)NCC1(Sc2nnc(-c3ccc(Cl)c(Cl)c3)o2)C(=O)N(Cc2ccc(Br)cc2)c2ccccc21 (stereo unspecified) | 4.38 | 21.9 µM | < 4.30 | 4.86 | 4.82 | < 4.30 | – | – | – | – | – | – | – | – | – | – |
| CC(C)(C)S(=O)(=O)NCC1(Sc2nnc(-c3ccccc3)o2)C(=O)N(Cc2ccccc2)c2ccccc21 (stereo unspecified) | 4.85 | 31.9 µM | 4.81 | 4.75 | 4.84 | 4.81 | – | – | – | – | – | – | – | – | – | – |
| Cc1ccc2c(c1)C(CNS(=O)(=O)C(C)(C)C)(Sc1nnc(-c3ccccc3)o1)C(=O)N2Cc1ccccc1 (stereo unspecified) | < 4.30 | 12.7 µM | 4.47 | 4.81 | 4.63 | < 4.30 | – | – | – | – | – | – | – | – | – | – |
| Cc1ccc2c(c1)C(CNS(=O)(=O)C(C)(C)C)(Sc1nc3ccccc3s1)C(=O)N2C (stereo unspecified) | 4.74 | 26.8 µM | 4.77 | 4.63 | 4.88 | 5.05 | – | – | – | – | – | – | – | – | – | – |
| CC(C)(C)S(=O)(=O)NCC1(Sc2nnc(-c3ccc(Cl)cc3)n2-c2ccccc2)C(=O)N(Cc2ccccc2)c2ccccc21 (stereo unspecified) | < 4.30 | 24.8 µM | 4.35 | < 4.30 | 4.80 | < 4.30 | – | – | – | – | – | – | – | – | – | – |
| CC(C)(C)S(=O)(=O)NCC1(Sc2nnc(-c3ccccc3)o2)C(=O)N(Cc2ccccc2)c2ccc(F)cc21 (stereo unspecified) | 4.42 | 33.3 µM | 4.39 | 4.52 | 4.78 | < 4.30 | – | – | – | – | – | – | – | – | – | – |
| CN1C(=O)C(CNS(=O)(=O)C(C)(C)C)(Sc2nc3ccccc3[nH]2)c2cc(Br)ccc21 (stereo unspecified) | 4.74 | 25.7 µM | 4.89 | 4.77 | 4.88 | 4.91 | – | – | – | – | – | – | – | – | – | – |
| Cc1ccc(CN2C(=O)C(CNS(=O)(=O)C(C)(C)C)(Sc3nnc(-c4ccccc4)o3)c3ccccc32)cc1 (stereo unspecified) | 4.85 | 18 µM | 4.86 | 4.77 | 4.91 | 5.17 | Dose-Dependent Effect | Active | Dose-Dependent Effect | Dose-Dependent Effect | Dose-Dependent Effect | Active | Active | Active | Active | Active |
| Cc1ccc(CN2C(=O)C(CNS(=O)(=O)C(C)(C)C)(Sc3nc4ccccc4[nH]3)c3ccccc32)cc1 (stereo unspecified) | 4.88 | 21.8 µM | 4.86 | 4.47 | 4.87 | 5.05 | – | – | – | – | – | – | – | – | – | – |
| O=c1[nH]cc(F)c(=O)[nH]1 [FLUOROURACIL] | 4.60 | – | 4.61 | – | – | 4.78 | – | – | – | – | – | – | – | – | – | – |
| COc1cccc(-c2nnc(SC3(CNS(=O)(=O)C(C)(C)C)C(=O)N(Cc4ccccc4)c4ccccc43)o2)c1 (stereo unspecified) | 4.51 | 22.9 µM | < 4.30 | 4.82 | 4.85 | < 4.30 | – | – | – | – | – | – | – | – | – | – |
| COc1cccc(-c2nnc(SC3(CNS(=O)(=O)C(C)(C)C)C(=O)N(Cc4ccc(Br)cc4)c4ccccc43)n2-c2ccccc2)c1 (stereo unspecified) | < 4.30 | 21.8 µM | 4.45 | 4.58 | 4.86 | < 4.30 | – | – | – | – | – | – | – | – | – | – |
| CC(C)(C)S(=O)(=O)NCC1(Sc2nc3ccccc3[nH]2)C(=O)N(Cc2ccccc2)c2ccccc21 (stereo unspecified) | 4.51 | 17.9 µM | < 4.30 | 4.65 | 4.82 | 4.37 | – | – | – | – | – | – | – | – | – | – |
| CC(C)(C)S(=O)(=O)NCC1(Sc2nnc(-c3cccc(Br)c3)o2)C(=O)N(Cc2ccccc2)c2ccccc21 (stereo unspecified) | 4.92 | 14.1 µM | 4.89 | 4.90 | 4.90 | 4.92 | – | – | – | – | – | – | – | – | – | – |

Reference: ChEMBL document CHEMBL5325462, “Regioselective synthesis and in vitro cytotoxicity evaluation of 3-thiooxindole derivatives: Tubulin polymerization inhibition and apoptosis inducing studies” (Bioorg Med Chem, 2023)
